Among the data in ChEMBL document CHEMBL1136837, “Unified QSAR approach to antimicrobials. 4. Multi-target QSAR modeling and comparative multi-distance study of the giant components of antiviral drug-drug complex networks” (Bioorg Med Chem, 2009) are IC50 values, retold here.

The experiment has as its system Human immunodeficiency virus 1. Nature of the experiment: Antiviral activity against HIV1. The experiment is classed as functional, organism-based.

Molecules are shown by their SMILES.

For `C=C[C@@]1(CO)C=C[C@H](n2cc(C)c(=O)[nH]c2=O)O1`, the IC50 is 100 µM. For `O=c1ccn([C@H]2S[C@@H](CO)C=C2F)c(=O)[nH]1`, the midpoint of inhibition, the IC50, lay at 100 µM. As for `Cc1cn([C@H]2S[C@@H](CO)C=C2F)c(=O)[nH]c1=O`, the figure is 100 µM; as for `O=C(O)c1ccc2ccc(/C=C/c3cc(O)cc(/C=C/c4ccc5ccc(C(=O)O)c(O)c5n4)c3)nc2c1O`, 100 µM. As for `O=C1CSC(c2c(F)cccc2Cl)N1c1ccc(Cl)cn1` (configuration not stated), the figure is 2.13 µM; as for `Cc1cc(C)nc(N2C(=O)CSC2c2c(F)cccc2F)c1` (configuration not stated), 0.059 µM; as for `Cc1cc(C)nc(N2C(=O)CSC2c2c(F)cccc2Cl)c1` (configuration not stated), 0.042 µM. On to `O=C1CSC(c2c(F)cccc2F)N1c1ccc(Cl)cn1` (configuration not stated), for which the IC50 was determined as 7.19 µM. As for `O=C1CSC(c2c(F)cccc2Cl)N1c1cccc(Br)n1` (configuration not stated), the figure is 0.064 µM; as for `Cc1ccnc(N2C(=O)CSC2c2c(F)cccc2Cl)c1` (configuration not stated), 0.099 µM.

Regarding `CCn1c(C(=O)CC(=O)C(=O)OC)cc2ccccc21`, the IC50 worked out at 60 µM.

In the case of `COC(=O)C(=O)CC(=O)c1cn(C)c2cc3c(cc12)OCO3`, the IC50 amounted to 31 µM. As for `COC(=O)C(=O)CC(=O)c1cc2ccccc2n1C`, the figure is 106 µM; as for `Cc1cc(/C=C/C#N)cc(C)c1Oc1ccnc(Nc2ccc(C#N)cc2)n1`, 0.001 µM. For `Nc1nc2c(ncn2C2C=CC(OCP(=O)(O)OP(=O)(O)C(Br)(Br)P(=O)(O)O)C2)c(=O)[nH]1` (configuration not stated), the midpoint of inhibition, the IC50, lay at 200 µM. As for `Nc1ncnc2c1ncn2C1C=CC(OCP(=O)(O)OP(=O)(O)C(Br)(Br)P(=O)(O)OP(=O)(O)COC2C=CC(n3cnc4c(N)ncnc43)C2)C1` (configuration not stated), the figure is 200 µM. As for `Nc1nc2c(ncn2C2C=CC(OCP(=O)(O)OP(=O)(O)C(F)(F)P(=O)(O)O)C2)c(=O)[nH]1` (configuration not stated), the figure is 25 µM; as for `Nc1ncnc2c1ncn2C1C=CC(OCP(=O)(O)OP(=O)(O)OP(=O)(O)O)C1` (configuration not stated), 0.2 µM; as for `CC(C)OC(=O)c1cn(S(=O)(=O)c2ccccc2)c2ccccc12`, 5 µM. For the compound `Cc1cc(Br)c(Nc2ccnc(Nc3ccc(C#N)cc3)n2)c(Br)c1`, the IC50 was determined as 0.00063 µM. On to `NC(=O)c1cc2ccc(Cl)cc2n1S(=O)(=O)c1ccccc1`, for which inhibition was half-maximal at 66 µM (IC50). As for `NC(=O)c1[nH]c2ccc(Cl)cc2c1S(=O)(=O)c1cc(Cl)ccc1N`, the figure is 0.3 µM; as for `Cc1cc(C)cc(Sc2c(C(N)=O)[nH]c3ccc(Cl)cc23)c1`, 0.006 µM. In turn, `NC(=O)c1cn(S(=O)(=O)c2ccccc2)c2cc(Cl)ccc12` displayed an IC50 of 200 µM.

On to `NNC(=O)c1[nH]c2ccc(Cl)cc2c1Sc1cc(Cl)ccc1N`, for which 13 µM corresponded to half-maximal inhibition (IC50). In turn, `NC(=O)c1[nH]c2ccc(Cl)cc2c1Sc1ccc(Cl)cc1` had an IC50 of 3.1 µM. As for `Cc1ccc(S(=O)(=O)c2c(C(N)=O)[nH]c3ccc(Cl)cc23)c(C)c1`, the figure is 0.004 µM; as for `Cc1cn([C@H]2C=C[C@@](C)(CO)O2)c(=O)[nH]c1=O`, 100 µM; as for `CCOC(=O)Cc1c(N)nc(N)nc1OCCOCP(=O)(O)O`, 0.0003 µM. As for `O=C1CSC(c2c(F)cccc2F)N1c1cccc(Br)n1` (configuration not stated), the figure is 0.03 µM. As for `O=C1CSC(c2c(Cl)cccc2Cl)N1c1ccc(Br)cn1` (configuration not stated), the figure is 1.51 µM; as for `Cc1cc(C)nc(N2C(=O)CSC2c2c(Cl)cccc2Cl)c1` (configuration not stated), 0.09 µM; as for `CCn1cc(C(=O)CC(=O)C(=O)OC)c2ccccc21`, 19 µM. In the case of `CC(C)OC(=O)c1cn(S(=O)(=O)c2ccccc2)c2ccc(Cl)cc12`, the concentration for half-maximal inhibition (IC50) turned out to be 200 µM. For `O=C(O)c1ccc2ccc(/C=C/c3ccco3)nc2c1O`, the midpoint of inhibition, the IC50, lay at 100 µM. As for `O=C(O)c1ccc2ccc(/C=C/c3cccnc3)nc2c1O`, the figure is 100 µM.

As to `Nc1ncnc2c1ncn2C1C=CC(OCP(=O)(O)OP(=O)(O)C(Br)(Br)P(=O)(O)O)C1` (configuration not stated), the IC50 worked out at 1000 µM. Compound `NNC(=O)c1[nH]c2ccc(Cl)cc2c1Sc1ccc(F)cc1` had an IC50 of 5 µM. As for `Nc1nc(=O)n([C@@H]2C=C(F)[C@H](CO)O2)cc1F`, the figure is 0.018 µM; as for `Nc1nc(O)c2ncn([C@H]3CC(F)(F)[C@H](CO)O3)c2n1`, 100 µM. As for `O=Cc1c(Cl)n([C@@H]2O[C@H](CF)[C@@H](O)[C@H]2O)c2cc(Cl)c(Cl)cc12`, the figure is 20 µM; as for `Nc1nc2c(ncn2C2C=CC(OCP(=O)(O)OP(=O)(O)OP(=O)(O)OP(=O)(O)COC3C=CC(n4cnc5c(N)ncnc54)C3)C2)c(=O)[nH]1` (configuration not stated), 0.7 µM; as for `OC[C@@H]1O[C@@H](n2cnc3c(O)ncnc32)CC1(F)F`, 100 µM.

In turn, `O=c1nc(O)ccn1[C@@H]1C=C(F)[C@H](CO)O1` gave a half-inhibitory concentration (IC50) of 100 µM.

Turning to `N#Cc1c(Cl)n([C@@H]2O[C@H](CF)[C@@H](O)[C@H]2O)c2cc(Cl)c(Cl)cc12`, inhibition was half-maximal at 40 µM (IC50). Regarding `Nc1nc(O)c2ncn([C@@H]3C=C(F)[C@H](CO)O3)c2n1`, inhibition was half-maximal at 38.5 µM (IC50). As for `Nc1nc(O)c2ncn([C@H]3C=C(F)[C@H](CO)O3)c2n1`, the figure is 100 µM; as for `Nc1ccn([C@@H]2CC(F)(F)[C@H](CO)O2)c(=O)n1`, 11.5 µM; as for `Nc1ccn([C@H]2CC(F)(F)[C@H](CO)O2)c(=O)n1`, 100 µM. As for `Nc1ccn([C@@H]2C=C(F)[C@H](CO)O2)c(=O)n1`, the figure is 0.089 µM; as for `Nc1nc(O)c2ncn([C@H]3S[C@@H](CO)C=C3F)c2n1`, 43.5 µM.

`OC[C@@H]1O[C@H](n2cnc3c(O)ncnc32)CC1(F)F`: half-maximal inhibition (IC50) was put at 100 µM.

Regarding `Cc1cn([C@@H]2CC(F)(F)[C@H](CO)O2)c(=O)nc1O`, half-maximal inhibition (IC50) required 100 µM.

`O=c1nc(O)ccn1[C@@H]1CC(F)(F)[C@H](CO)O1` registered an IC50 of 100 µM. As for `Cc1cn([C@H]2C=C(F)[C@H](CO)O2)c(=O)nc1O`, the figure is 100 µM.

`C[C@H]1O[C@@H](n2c(Cl)c(C=O)c3cc(Cl)c(Cl)cc32)[C@H](O)[C@@H]1O` returned an IC50 of 20 µM. As for `C[C@H]1O[C@@H](n2c(Cl)c(C#N)c3cc(Cl)c(Cl)cc32)[C@H](O)[C@@H]1O`, the figure is 32 µM; as for `Cc1cc(/C=C/C#N)ccc1Oc1ccnc(Nc2ccc(C#N)cc2)n1`, 0.00063 µM; as for `Nc1ncnc2c1ncn2[C@@H]1CC(F)(F)[C@H](CO)O1`, 100 µM. As to `CC(=O)c1c(Cl)n([C@H]2C[C@H](O)[C@@H](CO)O2)c2cc(Cl)c(Cl)cc12`, 8 µM corresponded to half-maximal inhibition (IC50). `N#Cc1c(Cl)n([C@H]2C[C@H](O)[C@@H](CO)O2)c2cc(Cl)c(Cl)cc12` came in with an IC50 of 35 µM.

As to `Cc1cn([C@@H]2C=C(F)[C@H](CO)O2)c(=O)nc1O`, the IC50 came out at 100 µM. As for `Nc1nc2c(ncn2C2C=CC(OCP(=O)(O)OP(=O)(O)C(F)(F)P(=O)(O)OP(=O)(O)COC3C=CC(n4cnc5c(N)ncnc54)C3)C2)c(=O)[nH]1` (configuration not stated), the figure is 15 µM; as for `Cc1cccnc1N1C(=O)CSC1c1c(F)cccc1F` (configuration not stated), 53.5 µM.

Consider `Cc1cn([C@H]2C=C[C@@](C#CCl)(CO)O2)c(=O)[nH]c1=O`, for which the 50% inhibitory concentration (IC50) came out at 100 µM. Turning to `CCOC(=O)c1cc2ccccc2n1S(=O)(=O)c1cc(Cl)ccc1[N+](=O)[O-]`, the IC50 was 100 µM. For `CCn1cc(C(=O)/C=C(/O)C(=O)O)c2ccccc21`, the IC50 worked out at 9 µM. In turn, `O=C1CSC(c2c(F)cccc2F)N1c1ccccn1` (configuration not stated) gave an IC50 of 0.855 µM. As for `Cn1cc(C(=O)/C=C(/O)C(=O)O)c2ccccc21`, the figure is 37 µM. As for `O=C1CSC(c2c(Cl)cccc2Cl)N1c1cccnc1` (configuration not stated), the figure is 95.1 µM; as for `Cc1cn([C@H]2C=C[C@@](C#N)(CO)O2)c(=O)[nH]c1=O`, 7 µM. As for `Nc1nc(O)c2ncn([C@@H]3CC(F)(F)[C@H](CO)O3)c2n1`, the figure is 100 µM. The compound `C=CC[C@@]1(CO)C=C[C@H](n2cc(C)c(=O)[nH]c2=O)O1` returned an IC50 of 100 µM. As for `OC[C@H]1C=C(F)[C@@H](n2cnc3c(O)ncnc32)S1`, the figure is 15.5 µM; as for `CCOC(=O)c1cc2ccccc2n1S(=O)(=O)c1ccccc1[N+](=O)[O-]`, 200 µM. Compound `Nc1nc(F)nc2c1ncn2[C@H]1S[C@@H](CO)C=C1F` registered an IC50 of 11.5 µM. As for `Nc1ncnc2c1ncn2[C@H]1C=C(F)[C@H](CO)O1`, the figure is 100 µM. Compound `[N-]=[N+]=NC[C@H]1O[C@@H](n2c(Cl)c(C=O)c3cc(Cl)c(Cl)cc32)[C@H](O)[C@@H]1O` had a concentration for half-maximal inhibition (IC50) of 10 µM. In turn, `Nc1ncnc2c1ncn2[C@H]1CC(F)(F)[C@H](CO)O1` gave an IC50 of 100 µM. As for `OC[C@@H]1O[C@H](n2cnc3c(O)ncnc32)C=C1F`, the figure is 100 µM; as for `O=c1nc(O)ccn1[C@H]1CC(F)(F)[C@H](CO)O1`, 100 µM. As to `Nc1nc2c(ncn2C2C=CC(OCP(=O)(O)OP(=O)(O)OP(=O)(O)O)C2)c(=O)[nH]1` (configuration not stated), inhibition was half-maximal at 0.3 µM (IC50).

Consider `NC(=O)c1cn(S(=O)(=O)c2ccccc2)c2ccccc12`, for which the IC50 came to 32 µM. The compound `NNC(=O)c1[nH]c2ccc(Cl)cc2c1Sc1ccc(Cl)cc1` yielded an IC50 of 10 µM.

`NC(=O)c1[nH]c2ccccc2c1Sc1cc(Cl)ccc1N` gave an IC50 of 9 µM. `NNC(=O)c1[nH]c2ccc(Cl)cc2c1S(=O)(=O)c1ccccc1` returned an IC50 of 0.01 µM. As for `CC(C)(C)c1ccc(Sc2c(C(N)=O)[nH]c3ccc(Cl)cc23)cc1`, the figure is 8 µM.

The compound `CCOC(=O)c1cc2ccc(Cl)cc2n1S(=O)(=O)c1ccc(Cl)cc1` had an IC50 of 200 µM.

As for `Cc1cccc(S(=O)(=O)c2c(C(N)=O)[nH]c3ccc(Cl)cc23)c1`, the midpoint of inhibition, the IC50, lay at 0.001 µM. As for `O=S(=O)(c1ccccc1)n1ccc2ccccc21`, the figure is 150 µM; as for `NNC(=O)c1cc2ccccc2n1S(=O)(=O)c1ccccc1`, 200 µM. Turning to `CC(C)c1ccc(Sc2c(C(N)=O)[nH]c3ccc(Cl)cc23)cc1`, half-maximal inhibition (IC50) required 1.9 µM. The compound `CC(=O)c1ccc2[nH]c(C(N)=O)c(S(=O)(=O)c3cc(C)cc(C)c3)c2c1` yielded an IC50 of 0.015 µM. As for `Cc1ccc(S(=O)(=O)c2c(C(N)=O)[nH]c3ccc(Cl)cc23)cc1`, the figure is 0.003 µM; as for `NC(=O)c1cc2ccccc2n1S(=O)(=O)c1ccccc1`, 15 µM. On to `CCOC(=O)c1cc2ccccc2n1S(=O)(=O)c1ccccc1`, for which it took 200 µM to reach half-maximal inhibition (IC50).

`CC(C)(C)c1ccc(S(=O)(=O)c2c(C(N)=O)[nH]c3ccc(Cl)cc23)cc1`: the IC50 was determined as 0.13 µM.
